Data from patent publication US6753348B2, “BTK inhibitors and methods for their identification and use” (Parker Hughes Institute, priority 1998, dated 2004).

Tests used:
[1] = test system: OVA-sensitized and challenged mice; assay: Airway responsiveness to methacholine in mouse model of allergic asthma; type: in vivo; details: ovalbumin sensitized and challenged, N = 5-6 mice
Experimental: FIG. 28: Inhibition of airway hyperresponsiveness by LFM-A8 in mice. Mice were sensitized with ovalbumin (OVA) on days 0 and 14 intraperitoneally. On days 20, 21 and 23, mice were challenged for 15 min with 2% OVA via airways using a untrasonic nebulizer. After 24 h of the last OVA challenge airway responsiveness to increasing concentrations of methacholine was measured. To study the effect of LFM-A8 on airway hyperresponsiveness, mice were injected intraperitoneally with indicated concentrations of LFM-A8 or vehicle on day 20, 21, and 23 1 h prior and 2 h post OVA challenge and airway responsiveness to increasing concentrations of methacholine was measured. The data points represent the mean±SEM values (N=5-6 mice).
Mouse Model of Allergic Asthma. BALB/c mice were injected intraperitoneally with 20 μg of ovalbumin (OVA) in alum on day 0, and 14. On days 21, 22 and 23 the mice were challenged for 15 min with 2% OVA via their airways by ultrasonic nebulization (Takeda, K., et al., (1997) J Exp Med, 186, 449-454). In order to study the effect of LFM-A8 on allergic asthma, mice were treated with LFM-A8 or vehicle 2 h prior to OVA challenge on day 21, 22 and 23. Mice were assessed for “airway responsiveness” on day 24, as previously reported (Takeda, K., et al., (1997) J Exp Med, 186, 449-454; Hamelmann, E., et al., (1997) Am J Respir Crit Care Med, 156, 766-775) and described below.
Determination of Airway Responsiveness. Airway responsiveness was measured in unrestrained mice by noninvasive whole body plethysmography using a BUXCO BioSystem plethysmography instrument (BUXCO, Trou, N.Y.) (Hamelmann, E., et al., (1997) Am J Respir Crit Care Med, 156, 766-775). The chamber pressure was measured with a transducer connected to a preamplifier module and analyzed by system XA software) (Hamelmann, E., et al., (1997) Am J Respir Crit Care Med, 156, 766-775). The chamber pressure was used as a measure of the difference between thoracic volume expansion or contraction and air volume removed or added to the chamber during breathing. The differential of this function with respect to time produced a pseudo-flow value that is proportionate to the difference between the rate of the thoracic volume expansion and nasal air flow. The pulmonary airflow obstruction assessed by measuring “Enhanced Pause (Penh)” using the following formula according to the manufacturer's recommendations: Penh=PEP/PIP×Pause. […] In order to measure the methacholine responses, mice were placed in the chamber and baseline readings were taken and averaged for 3 min. Mice were nebulized with saline or methacholine at increasing doses (1-100 mg/ml) for 3 min and the Penh readings were taken and averaged for 3 min after each nebulization. […]

JAK1 = JAK1 (Homo sapiens, UniProt P23458); assay: Cell-free tyrosine kinase inhibition assay JAK1; type: biochemical
[2] = biological target: BTK-Fas association in NALM-6-UM1 cells (Homo sapiens, UniProt Q06187); assay: BTK-Fas association, Western blot of BTK immune complexes; type: cell-based; details: 10 μM x 4 hours
Experimental: FIGS. 6A-6D: Apoptotic Responses of Human B-lineage Leukemia Cells to Fas Ligation in Relationship to BTK Expression and Function. Anti-BTK and anti-Actin dual-antibody Western blot analysis of whole cell lysates from BTK-positive NALM-6-UM1 (N6-U1) and BTK-deficient RAMOS-1 cells (FIG. 5A). Anti-Fas Western blot analysis of the same cell lysates. [B] Cells were harvested 24 hours after exposure to anti-Fas antibody at 0.1 μg/ml or 1.0 μg/ml concentrations and DNA from Triton-X-100 lysates was analyzed for fragmentation, as described by Uckun, F. M., et al. (1996) Science 273, 1096-1100; and Uckun, F. M., et al. (1995) Science 267, 886-91. […] [C.1] and [C.2] Anti-BTK and anti-Fas Western blot analysis of whole cell lysates from N6-U1 cells treated with the BTK inhibitor LMA-13 (10 μM×4 hours). [C.3] Anti-Fas and Anti-BTK Western blot analysis of anti-BTK antibody immunoprecipitated BTK immune complexes from untreated (=−Inhibitor) and LMA-13-treated (10 μM×4 hours) (=+Inhibitor) N6-U1 cells. [D]. N6-U1 cells were harvested 24 hours after exposure to anti-Fas antibody at 0.1 μg/ml or 1.0 μg/ml concentrations and DNA from Triton-X-100 lysates was analyzed for fragmentation, as described by Uckun, F. M., et al. (1996) Science 273, 1096-1100; and Uckun, F. M., et al. (1995) Science 267, 886-91. […]

Sequence of JAK1 (P23458 whole entry, species assumed): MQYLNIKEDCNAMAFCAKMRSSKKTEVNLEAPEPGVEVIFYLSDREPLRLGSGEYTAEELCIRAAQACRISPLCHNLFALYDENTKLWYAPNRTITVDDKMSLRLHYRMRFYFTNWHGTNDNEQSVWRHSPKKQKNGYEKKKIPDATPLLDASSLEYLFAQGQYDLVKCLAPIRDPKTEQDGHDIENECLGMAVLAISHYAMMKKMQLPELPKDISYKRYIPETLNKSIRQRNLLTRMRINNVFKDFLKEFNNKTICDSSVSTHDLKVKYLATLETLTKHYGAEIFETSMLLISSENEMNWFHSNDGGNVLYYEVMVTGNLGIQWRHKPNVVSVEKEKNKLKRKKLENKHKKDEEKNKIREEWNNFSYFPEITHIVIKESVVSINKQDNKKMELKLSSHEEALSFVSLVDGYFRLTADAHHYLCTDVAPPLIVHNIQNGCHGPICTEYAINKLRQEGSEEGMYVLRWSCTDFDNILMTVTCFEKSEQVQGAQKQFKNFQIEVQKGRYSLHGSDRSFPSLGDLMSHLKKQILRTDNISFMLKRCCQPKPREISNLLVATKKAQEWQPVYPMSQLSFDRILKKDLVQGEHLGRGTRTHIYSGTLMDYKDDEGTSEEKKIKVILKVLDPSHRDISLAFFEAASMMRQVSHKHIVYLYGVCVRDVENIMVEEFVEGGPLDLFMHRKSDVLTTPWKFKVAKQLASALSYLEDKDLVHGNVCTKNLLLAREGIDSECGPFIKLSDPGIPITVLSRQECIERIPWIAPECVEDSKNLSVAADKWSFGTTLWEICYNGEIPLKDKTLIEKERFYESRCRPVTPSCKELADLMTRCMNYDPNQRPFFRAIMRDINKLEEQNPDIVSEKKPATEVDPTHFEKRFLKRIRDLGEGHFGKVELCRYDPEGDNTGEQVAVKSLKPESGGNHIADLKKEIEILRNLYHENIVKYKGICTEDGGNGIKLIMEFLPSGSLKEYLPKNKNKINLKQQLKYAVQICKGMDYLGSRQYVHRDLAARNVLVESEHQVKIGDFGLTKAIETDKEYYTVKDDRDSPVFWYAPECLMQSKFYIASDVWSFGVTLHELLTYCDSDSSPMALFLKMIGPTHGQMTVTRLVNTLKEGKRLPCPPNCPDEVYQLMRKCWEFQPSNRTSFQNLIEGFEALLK
Sequence of BTK-Fas association in NALM-6-UM1 cells (Q06187 2-659): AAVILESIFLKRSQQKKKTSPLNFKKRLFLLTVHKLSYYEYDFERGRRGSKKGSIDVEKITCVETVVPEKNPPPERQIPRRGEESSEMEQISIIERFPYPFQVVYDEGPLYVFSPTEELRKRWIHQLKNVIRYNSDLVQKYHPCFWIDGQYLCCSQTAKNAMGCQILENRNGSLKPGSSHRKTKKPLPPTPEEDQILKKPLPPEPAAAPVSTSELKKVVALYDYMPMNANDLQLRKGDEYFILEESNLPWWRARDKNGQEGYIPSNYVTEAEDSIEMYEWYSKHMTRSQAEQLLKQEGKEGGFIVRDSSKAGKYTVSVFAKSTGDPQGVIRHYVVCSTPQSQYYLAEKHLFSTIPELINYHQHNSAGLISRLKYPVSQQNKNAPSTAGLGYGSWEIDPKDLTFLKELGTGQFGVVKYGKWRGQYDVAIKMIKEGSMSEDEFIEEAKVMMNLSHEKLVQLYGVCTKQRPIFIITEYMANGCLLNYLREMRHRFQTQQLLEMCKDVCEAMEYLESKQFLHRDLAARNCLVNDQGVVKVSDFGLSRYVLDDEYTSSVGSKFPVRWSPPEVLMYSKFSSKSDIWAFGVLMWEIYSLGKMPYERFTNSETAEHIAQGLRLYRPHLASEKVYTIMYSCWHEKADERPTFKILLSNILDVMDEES

SMILES | Requirement of Methacholine for an Increase in Penh of 100% ([1]; 15 mg/Kg intraperitoneally) | Requirement of Methacholine for an Increase in Penh of 200% ([1]; 15 mg/Kg intraperitoneally) | Requirement of Methacholine for an Increase in Penh of 100% ([1]; 50 mg/Kg intraperitoneally) | Requirement of Methacholine for an Increase in Penh of 200% ([1]; 50 mg/Kg intraperitoneally) | IC50 (JAK1) | effect on enzymatic activity of JAK1 (JAK1; concentrations as high as 100 μg/ml (~278 μM)) | BTK-Fas association [2]
CC(O)=C(C#N)C(=O)Nc1cccc(C(F)(F)F)c1 [LFM-A8, α-Cyano-β-hydroxy-β-methyl-N-[3-(trifluoromethyl)phenyl]-propenamide] | 36.8 mg/mL | 82 mg/mL | 67.5 mg/mL | 129 mg/mL | – | – | –
C/C(O)=C(\C#N)C(=O)Nc1cc(Br)ccc1Br [LFM-A13, α-Cyano-β-hydroxy-β-methyl-N-(2,5-dibromophenyl)-propenamide] | – | – | – | – | > 278 µM | did not affect the enzymatic activity | abrogates the BTK-Fas association
